Assay results: US12297203B2, “Pyrrolopyrimidine ITK inhibitors” (ACLARIS THERAPEUTICS, INC., priority 2018, dated 2025)
Read-outs that look alike come from different tables or passages of the source.

Key:
[1] = biological target: JAK3 (Homo sapiens (Human), UniProt P52333); assay: JAK3 enzyme activity assay (Caliper mobility shift); type: biochemical; details: ATP at Km level; read-out: JAK3 Inh. IC50
From the text: The ability of candidate compounds to interact with JAK3 is quantitated by a mobility shift assay using an LC3000 instrument developed by Caliper Life Sciences. This assay is based on mobility shift electrophoresis, in which fluorescently labelled product and fluorescently labelled substrate peaks are separated and detected independently. JAK3 product/substrate separation is obtained using the following instrument settings: Pressure=−1.4 psi, Downstream voltage=−2550V and Upstream voltage=−800V. The inhibitory potency of candidate compounds of JAK3 is measured in 20 mM HEPES pH 7.5, 10 mM MgCl2, 0.01% BSA, 0.0005% Tween-20, and 2% DMSO in the presence of 2.5 nM JAK3 (Life Technologies Catalog #PV3855), […] (Anaspec Catalog #AS-64106) and […] (Km level) using a 384-well plate format. Background signal is defined in the absence of enzyme and uninhibited signal is defined in the presence of vehicle (2% DMSO) alone. Compounds were evaluated in an 11 point dose-response ranging from […] to 0.34 nM. IC50 values of compounds are determined using a 4 parameter logistical fit of emission ratio as a function of the concentration of compound.

[2] = system: JAK1/3 phosphorylation of its substrate, STAT5, at Y694; assay: JAK1/3 target modulation assay (IL-2 stimulated STAT5 Y694 phosphorylation in PBMC); type: cell-based; details: Primary human peripheral blood mononuclear cells, IL-2 25 ng/mL, read-out: IL2-STAT5 Inh. IC50
Method: Target modulation was based upon the ability of a compound to inhibit JAK1/3 phosphorylation of its substrate, STAT5, at Y694. Primary human peripheral blood mononuclear cells were plated in V-bottom 96 well plates at 200,000 cells/well in 120 μL medium (RPMI-1640 with 10% fetal bovine serum, 10 mM HEPES buffer, 12.2 mM 2-mercaptoethanol, and supplemented with glutamine/penicillin/streptomycin). Compounds were added as 15 μL of 10× working stock solutions in medium with 1% DMSO (or medium with 1% DMSO for controls) and placed in a 37° C. incubator with gentle shaking for 1 hour. Stimulation was carried out using recombinant human IL-2 (R&D Systems #202-IL-050) to activate JAK1/3. IL-2 stock solution was diluted in media to 250 ng/mL and was added rapidly to all compound containing and stimulation only wells at 15 μL/well (final concentration=25 ng/mL). Wells designated ‘unstimulated’ received 15 μL of media only. The plate was placed back in a 37° C. incubator with gentle shaking for 5 minutes. After stimulation, the plates were immediately sealed with a plate seal, and cells pelleted at 400× g for 5 minutes. Media was removed using a multichannel aspirator, and 75 μL of cold Tris lysis buffer (MSD #R60TX-3) plus 1× Protease Inhibitor Solution (MSD #R70AA-1), 1× Phosphatase Inhibitor I (MSD #R70AA-1), and 1× Phosphatase Inhibitor II (MSD #R70AA-1) was added per well. Cells were incubated at 4° C. with gentle shaking for at least 30 minutes to allow for complete lysis. The plates were removed from 4° C., and 25 μL of lysate from each well was added to the corresponding well on the MSD plate. Samples were analyzed by either an MSD multiplex kit for Phospho-STAT5a,b/Total-STAT5a,b (MSD #K15163D) or an MSD single-plex kit for Phospho-STAT5a,b (MSD #K150IGD). The protocols for the respective kits were followed, and the plates were read on the MSD SECTOR S 600.

[3] = system: ITK phosphorylation of its substrate, PLCγ1, at Y783; assay: ITK target modulation assay (PLCγ1 Y783 phosphorylation, anti-CD3 stimulated Jurkat T cells); type: cell-based; details: anti-CD3 Dynabeads stimulation, read-out: PLC-γ Inh. IC50
Method: Target modulation was based upon the ability of a compound to inhibit ITK phosphorylation of its substrate, PLCγ1, at Y783. Human Jurkat T cells (ATCC TIB-152) were plated in V-bottom 96 well plates at 400,000 cells/well in 80 μL medium (RPMI1640 with 10% heat inactivated serum and 55 μM 2-mercaptoethanol and supplemented with glutamine/penicillin/streptomycin). Compounds were added as 10 μL of 10× working stock solutions in medium with 1% DMSO (or medium with 1% DMSO for controls) and placed in a 37° C. incubator with gentle shaking for 1 hour. Stimulation was carried out using anti-CD3 Dynabeads (Invitrogen catalog #1151D) to activate the T cell receptor and mimic antigen presenting cells. Beads were washed and resuspended in medium at 1.84×10^8 beads/ml. Beads were added rapidly to all compound containing and stimulation only wells at 10 μL/well (bead:cell=2:1) with gentle mixing of the bead source between each addition. Wells designated ‘unstimulated’ received 10 μL of media only. The plate was immediately sealed with a plate seal and cells pelleted at 400× g for 4 minutes. Media was removed using a multichannel aspirator, 25 μL of cold hypotonic lysis buffer (VWR M334-100 ml) plus 1×HALT Protease Inhibitor Cocktail (ThermoFisher #78437), 1× Phosphatase Inhibitor Cocktail 2 (Sigma Aldrich #P5726), 1× Phosphatase Inhibitor Cocktail 3 (Sigma Aldrich #P0044) and 2 mM PMSF was added per well. Cells were incubated on ice for 30 minutes to swell the cells then lysed by pipetting 20 times using a multichannel pipet. The plates were then resealed and centrifuged for 5 minutes at 400× g to pellet the cellular debris. Two μL of the soluble component of each sample was spotted onto nitrocellulose and allowed to dry for 30 minutes. Nitrocellulose was wet in 1× Tris Buffer Saline (20 mM Tris pH7.5, 150 mM NaCl) then blocked in LiCOR Odyssey Blocking Buffer (TBS) (LiCOR #927-50000) for 1 hour at room temperature with rocking. Following blocking, nitrocellulose was incubated in LiCOR Odyssey Blocking Buffer (TBS) plus 0.2% Tween20 plus anti-phospho-PLCγ1 (Y783) antibody (CST #2821S) at 1:1000 and anti-PLCγ1 (Abcam #41433) at 1:5000 with gentle rocking overnight at 4° C. Nitrocellulose was then washed four times for 5 minutes each with TBS plus 0.1% Tween20 (TBST) then incubated in LiCOR Odyssey Blocking Buffer (TBS) plus 0.2% Tween20 plus secondary antibodies IRDye 800CW (LiCOR 926-32211) and IRDye 680RD (LiCOR 926-68070) both at 1:15,000 with gentle rocking at room temperature in the dark for 1 hour. Nitrocellulose was then washed four times for 5 minutes each with TBST at room temperature in the dark. A final rinse with TBS was done prior to imaging and quantifying using the LiCOR Odyssey Imager and software respectively.

[4] = biological target: ITK (Homo sapiens (Human), UniProt Q08881); assay: ITK inhibitor binding potency (LanthaScreen competitive binding assay); details: read-out: ITK Inh. IC50
From the text: The ability of candidate compounds to interact with ITK is quantitated by a competitive binding assay using the LanthaScreen technology developed by Life Technologies. This assay is based on the binding of a proprietary, Alexa Fluor® 647-labeled, ATP-competitive kinase inhibitor (kinase tracer-236) to the ITK expression construct in the presence of a Europium-conjugated antibody, resulting in a FRET (fluorescence resonance energy transfer) signal. Displacement of the kinase tracer by compound results in a lower emission ratio upon excitation of the Europium chelate. Candidate compounds are designed as potential irreversible inhibitors of ITK, capable of ligating to an active site cysteine residue resulting in time dependent covalent binding. The time dependent nature of irreversible inhibition is investigated by performing the binding assay with and without a pre-incubation of compound and ITK. […] The inhibitory potency of candidate compounds is measured in 20 mM HEPES pH 7.5, 10 mM MgCl2, 0.01% BSA, 0.0005% Tween-20, and 2% DMSO in the presence of 10 nM ITK, 2 nM Eu-anti-GST antibody, and 50 nM kinase tracer-236 using a 384-well plate format. Background signal is defined in the absence of ITK and uninhibited signal is defined in the presence of vehicle (2% DMSO) alone. Compounds were evaluated in an 11 point dose-response ranging from 20 uM to 0.34 nM. The binding assays are performed under two preincubation conditions to evaluate time dependence of inhibition. For the pre-incubation assay, ITK and Eu-anti-GST antibody are pre-incubated with compound or vehicle for two hours prior to the addition of kinase tracer. The non-preincubated assay is run under conditions where ITK and Eu-anti-GST antibody are added to a mixture of compound and kinase tracer. IC50 values of compounds are determined using a 4 parameter logistical fit of emission ratio as a function of the concentration of compound.

Sequence of JAK3 (P52333 781-1124): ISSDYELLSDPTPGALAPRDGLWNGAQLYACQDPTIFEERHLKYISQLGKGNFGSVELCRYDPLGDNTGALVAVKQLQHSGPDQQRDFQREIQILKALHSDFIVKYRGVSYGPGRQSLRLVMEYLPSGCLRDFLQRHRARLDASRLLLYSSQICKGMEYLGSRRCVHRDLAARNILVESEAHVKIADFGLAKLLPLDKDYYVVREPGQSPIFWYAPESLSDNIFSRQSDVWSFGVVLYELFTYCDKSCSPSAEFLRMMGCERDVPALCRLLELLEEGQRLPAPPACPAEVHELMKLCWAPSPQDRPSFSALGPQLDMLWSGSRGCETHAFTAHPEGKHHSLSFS
Sequence of ITK (Q08881 whole entry): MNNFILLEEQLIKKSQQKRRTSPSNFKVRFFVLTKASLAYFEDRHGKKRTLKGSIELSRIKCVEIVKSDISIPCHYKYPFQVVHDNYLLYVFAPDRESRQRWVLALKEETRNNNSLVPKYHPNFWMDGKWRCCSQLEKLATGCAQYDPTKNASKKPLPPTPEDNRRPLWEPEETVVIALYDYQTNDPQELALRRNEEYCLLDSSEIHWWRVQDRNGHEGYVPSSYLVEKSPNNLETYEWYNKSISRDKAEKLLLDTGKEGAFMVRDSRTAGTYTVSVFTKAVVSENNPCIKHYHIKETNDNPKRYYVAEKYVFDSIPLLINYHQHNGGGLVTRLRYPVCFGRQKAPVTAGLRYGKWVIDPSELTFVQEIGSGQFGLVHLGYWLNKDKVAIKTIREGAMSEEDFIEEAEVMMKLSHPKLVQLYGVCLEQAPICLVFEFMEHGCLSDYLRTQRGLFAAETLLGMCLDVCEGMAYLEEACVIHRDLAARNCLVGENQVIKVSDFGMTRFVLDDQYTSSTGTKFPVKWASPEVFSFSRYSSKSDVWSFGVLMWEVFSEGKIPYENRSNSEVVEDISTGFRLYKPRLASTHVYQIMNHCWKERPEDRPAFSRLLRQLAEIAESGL

Row | Structure (SMILES) | IC50 [1] [nM] | IC50 ([2]; Homo sapiens, PBMC) [nM] | IC50 ([3]; Homo sapiens, Jurkat) [nM] | IC50 [4] [nM] | IC50 [2] [nM] | IC50 ([3]; Human Jurkat T cells) [nM]
1 | C=CC(=O)N1C[C@H](Nc2ncnc3[nH]cc(C(=O)OCC(C)C)c23)CC[C@@H]1C [Example 16, isobutyl 4-(((3R,6S)-1-acryloyl-6-methylpiperidin-3-yl)amino)-7H-pyrrolo[2,3-d]pyrimidine-5-carboxylate] | ≤ 10 | 100 to 1000 | > 1000 | 10 to 100 |  | 
2 | C=CC(=O)N1CCC(Nc2ccnc3[nH]cc(C(=O)C4CC4)c23)CC1 [Example 10, 1-(4-((3-(cyclopropanecarbonyl)-1H-pyrrolo[2,3-b]pyridin-4-yl)amino)piperidin-1-yl)prop-2-en-1-one] | > 100 | > 1000 | > 1000 | > 100 |  | 
3 | C=CC(=O)N1CCC[C@@H](Nc2ncnc3[nH]cc(C4=CCCC4)c23)C1 [Example 29, (R)-1-(3-((5-(cyclopent-1-en-1-yl)-7H-pyrrolo[2,3-d]pyrimidin-4-yl)amino)piperidin-1-yl)prop-2-en-1-one] | ≤ 10 | 100 to 1000 | 100 to 1000 | ≤ 10 |  | 
4 | C=CC(=O)N1CCC[C@@H](Nc2ncnc3[nH]cc(CC4CCCC4)c23)C1 [Example 22, (R)-1-(3-((5-(cyclopentylmethyl)-7H-pyrrolo[2,3-d]pyrimidin-4-yl)amino)piperidin-1-yl)prop-2-en-1-one] | ≤ 10 | 100 to 1000 | 100 to 1000 | ≤ 10 |  | 
5 | C=CC(=O)N1C[C@H](Nc2ncnc3[nH]cc(C(=O)OC(C)(C)C)c23)CC[C@@H]1C [Example 31, tert-butyl 4-(((3R,6S)-1-acryloyl-6-methylpiperidin-3-yl)amino)-7H-pyrrolo[2,3-d]pyrimidine-5-carboxylate] | ≤ 10 | 100 to 1000 | 100 to 1000 | ≤ 10 |  | 
6 | C=CC(=O)N1CCC[C@@H](Nc2ncnc3[nH]cc(C(=O)OCC)c23)C1 [Example 1, ethyl (R)-4-((1-acryloylpiperidin-3-yl)amino)-7H-pyrrolo[2,3-d]pyrimidine-5-carboxylate] | ≤ 10 | 100 to 1000 | > 1000 | ≤ 10 |  | 

The remaining lines, values ahead:

Row | IC50 [1] [nM] | IC50 ([2]; Homo sapiens, PBMC) [nM] | IC50 ([3]; Homo sapiens, Jurkat) [nM] | IC50 [4] [nM] | IC50 [2] [nM] | IC50 ([3]; Human Jurkat T cells) [nM] | Structure (SMILES)
7 | ≤ 10 | ≤ 100 | > 1000 | 10 to 100 |  |  | C=CC(=O)N1CCC(Nc2cnc3[nH]cc(C(=O)C4CC4)c3n2)CC1 [Example 99, 1-(4-((7-(cyclopropanecarbonyl)-5H-pyrrolo[2,3-b]pyrazin-2-yl)amino)piperidin-1-yl)prop-2-en-1-one]
8 | ≤ 10 |  |  | ≤ 10 | 100 to 1000 | 100 to 1000 | C=CC(=O)N1C[C@H](Nc2ncnc3[nH]cc([C@H]4[C@H](C)C4(F)F)c23)CC[C@@H]1C (single isomer, unassigned) [Example 56]
9 | ≤ 10 | 100 to 1000 | 100 to 1000 | ≤ 10 |  |  | C=CC(=O)N1C[C@H](Nc2ncnc3[nH]cc([C@@H]4C(C)(C)C4(F)F)c23)CC[C@@H]1C (single isomer, unassigned) [Example 54]
10 | ≤ 10 | 100 to 1000 | ≤ 100 | ≤ 10 |  |  | C[C@H]1CC[C@@H](Nc2ncnc3[nH]cc([C@H]4CC4(F)F)c23)CN1C(=O)/C=C/CN(C)C (single isomer, unassigned) [Example 60]
11 | ≤ 10 | ≤ 100 | ≤ 100 | ≤ 10 |  |  | C=CC(=O)N1C[C@H](Nc2ncnc3[nH]cc([C@@H]4CC4(F)F)c23)CC[C@@H]1CC (single isomer, unassigned) [Example 68]
12 | ≤ 10 | > 1000 | > 1000 | 10 to 100 |  |  | C=CC(=O)N1CCC[C@@H](Nc2ncnc3[nH]cc([C@]45CCC[C@H]4C5(F)F)c23)C1 (single isomer, unassigned) [Example 80]
13 | ≤ 10 | 100 to 1000 | 100 to 1000 | ≤ 10 |  |  | C=CC(=O)N1C[C@H](Nc2ncnc3[nH]cc(C(=O)C4CC4)c23)CC[C@@H]1C [Example 32, 1-((2S,5R)-5-((5-(cyclopropanecarbonyl)-7H-pyrrolo[2,3-d]pyrimidin-4-yl)amino)-2-methylpiperidin-1-yl)prop-2-en-1-one]
14 | > 100 | > 1000 | > 1000 | > 100 |  |  | C/C=C/C(=O)N1C[C@H](Nc2ncnc3[nH]cc([C@H]4CC4(F)F)c23)CC[C@@H]1C (single isomer, unassigned) [Example 57]
